Ends that are not written are not given here.
How the values were obtained:
βENaC = target: T1, βENaC (Homo sapiens, UniProt P51168); test: Biotinylated peptide pull-down of ENaC subunits from HEK293T cells; type: binding
T1 construct: expressed in transfected cells; host or cells: HEK293T cells (lysate)
T1 sequence (P51168 1-640): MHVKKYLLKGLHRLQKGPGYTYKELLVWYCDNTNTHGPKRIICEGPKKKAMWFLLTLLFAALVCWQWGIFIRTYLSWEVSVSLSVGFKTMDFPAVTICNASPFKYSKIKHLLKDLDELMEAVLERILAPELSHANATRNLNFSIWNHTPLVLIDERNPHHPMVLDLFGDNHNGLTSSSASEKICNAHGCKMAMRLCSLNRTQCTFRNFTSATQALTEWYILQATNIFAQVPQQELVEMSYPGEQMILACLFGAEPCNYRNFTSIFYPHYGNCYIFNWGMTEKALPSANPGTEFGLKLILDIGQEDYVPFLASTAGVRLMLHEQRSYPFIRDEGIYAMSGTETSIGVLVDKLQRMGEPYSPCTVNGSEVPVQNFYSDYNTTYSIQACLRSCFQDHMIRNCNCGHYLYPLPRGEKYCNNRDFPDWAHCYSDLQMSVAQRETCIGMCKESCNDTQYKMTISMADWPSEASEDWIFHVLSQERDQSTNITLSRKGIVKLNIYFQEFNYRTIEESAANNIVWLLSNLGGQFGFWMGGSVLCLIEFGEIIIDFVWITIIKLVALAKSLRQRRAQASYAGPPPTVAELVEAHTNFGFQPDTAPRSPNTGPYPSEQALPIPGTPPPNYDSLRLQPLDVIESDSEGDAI
Method: HEK293T cells were transfected with double-tagged human ENaC subunits with HA and V5 epitopes at the N- and C-termini, respectively, in combination with wild-type untagged subunit cDNA. When all three ENaC subunits were expressed, 0.5 μg of each subunit were transfected per well. When expressed individually, 0.75 μg of the subunit were transfected per well. The transfected cells were lysed 24 h later using NP-40 buffer with 1× complete EDTA-free protease inhibitor (Roche, Basel, Switzerland). The lysate was centrifuged at 16,300×g for 15 minutes at 4° C. and the supernatant collected. Protein concentration was determined using the BCA assay and 500 μg of protein plus 0.25 mg peptide and 100 μL of neutravidin were added to a spin column and rotated end-over-end at 4° C. for 24 h (all ThermoFisher Scientific, Rockford, Ill., USA). Flow-through was collected by centrifugation at 1000×g for 30 s. The beads were then washed 5× with NP-40 buffer. Bound protein was eluted by boiling at 95° C. for 10 minutes in 75 μL of 2×LDS NuPAGE sample buffer with 1× sample reducing agent followed by centrifugation at 16,300×g for 2 minutes. Samples were resolved on 4-12% Bis-Tris gels in MES and transferred to a nitrocellulose membrane using iBlot, setting P3 for 8 min (Invitrogen, Carlsbad, Calif., USA). The membrane was probed using 1:1000 anti-V5 antibody (Invitrogen, Carlsbad, Calif., USA) overnight at 4° C. in 3% fish gelatin in TBS-T. The blot was then incubated for 1 h at room temperature with an ECL sheep anti-mouse IgG secondary antibody and detected by ECL reagent (ThermoFisher Scientific, Waltham, Mass., USA) or by incubation with a goat anti-mouse IRDye secondary antibody and analyzed by an Odyssey infrared imaging system (LI-COR Biosciences, Lincoln, Nebr., USA).
Peptide pull-down assays were performed as described above. Samples were eluted by the addition of 100 μL of 0.1 M sodium citrate, pH 5.5, 0.1% SDS to the beads and incubating at 100° C. for 2 minutes, followed by centrifugation at 16,300×g for 2 minutes. […]

[1] = Urinary Na+ excretion (natriuresis) in anesthetized mice after intravenous infusion; type: in vivo; conditions: 250 nmol/g BW/h intravenous infusion, unconscious mice
Method: To study the effects of SPLUNC1-derived peptides on the in vivo kidney, mice were anesthetized. After a baseline 45 min control clearance period, S18-type peptide or amiloride were infused intravenously over 30 min and the natriuretic response recorded over the subsequent 2-3 h.
Urinary Na^+ output was measured in unconscious mice (FIG. 32). Amiloride (38 nmol/g BW/h; ▪) and S18 (250 nmol/g BW/h; ▴) were added during the infusion period and urinary Na^+ excretion (UNaV) was measured throughout.

serine proteases = test: Endogenous protease activity (BGAR-MCA cleavage) on mucosal surface of human bronchial epithelial cultures; type: cell-based
Method: For cell-free assays, reactions were carried out in 50 μl Ringer in a 96 well plate format with 100 μM BGAR-MCA. To measure endogenous protease activity in human bronchial epithelial cultures, 30 μl Ringer with 100 μM BGAR-MCA were placed directly onto the mucosal surfaces of human bronchial epithelial cultures grown on 12 mm T-clear inserts and the cultures were assayed in 12 well plates.

GGLPVPLDQTLPLNVNPA [S18]
glycosylation dependence of β-ENaC interaction (βENaC; EndoH treated elution, tunicamycin treated cells): glycosylation dependent | binding to βENaC (pull-down) (βENaC; subunits individually expressed, biotinylated peptide): binds exclusively to βENaC | urinary Na+ excretion (UNaV) [1]: induces natriuresis

B1: SPLUNC1: human SPLUNC1 (SEQ ID NO:1), 256 amino acid secreted PLUNC family protein; rSPLUNC1 is the purified V5/6His-tagged recombinant form (protein, listed as Homo sapiens)
chain: MFQTGGLIVFYGLLAQTMAQFGGLPVPLDQTLPLNVNPALPLSPTGLAGSLTNALSNGLLSGGLLGILENLPLLDILKPGGGTSGGLLGGLLGKVTSVIPGLNNIIDIKVTDPQLLELGLVQSPDGHRLYVTIPLGIKLQVNTPLVGASLLRLAVKLDITAEILAVRDKQERIHLVLGDCTHSPGSLQISLLDGLGPLPIQGLLDSLTGILNKVLPELVQGNVCPLVNEVLRGLDITLVHDIVNMLIHGLQFVIKV
modifications: V5/6His tag in recombinant form
notes: rSPLUNC1 is the purified V5/6His-tagged recombinant form
BGAR-MCA cleavage on human bronchial epithelial mucosal surfaces (serine proteases): no significant affect

From US9127040B2, “Regulation of sodium channels by PLUNC proteins” (The University of North Carolina at Chapel Hill, priority 2011, dated 2015)
